Measurements taken from ChEMBL document CHEMBL1201862, “PubChem BioAssay data set” (2004).
The source made the active and inactive calls.

How the values were obtained:
[1] = tested on: INS1; test: beta cell apoptosis inhibitors, cytokine rescue, dose response, luminescence, retest (AID 449756); assay type: functional, cell-based; conditions: Rattus norvegicus;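 further: cell death triggered by IL-1 beta plus TNF-alpha plus IFN-gamma mixture; protective hits raise ATP signal compared with cytokine alone wells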
[2] = target: FAD-linked sulfhydryl oxidase ALR (Homo sapiens, UniProt P55789); test: inhibitors of human ALR sulfhydryl oxidase, dose response, biochemical, H2O2 detection, luminescence, cherry-pick (AID 493248)
[3] = target: T1, Polyadenylate-binding protein 1 (Homo sapiens, UniProt P11940); test: PABP1 MLLE–PAM2 interaction inhibitors, dose response, miRNA deadenylation inhibitor project, biochemical, fluorescence polarization, Cy5-PAM2 peptide, secondary (AID 602260); assay type: functional; conditions: read-out: IC50_Mean
[4] = target: T1, Polyadenylate-binding protein 1; test: PABP1 MLLE–PAM2 binding inhibitor potency, dose response, biochemical, fluorescence polarization, FITC-PAM2 peptide (AID 602259); assay type: functional; conditions: read-out: IC50_Mean
[5] = target: T2, Fatty acid synthase (Homo sapiens, UniProt P49327); test: FAS thioesterase domain inhibitors, dose response, biochemical, endpoint fluorescence intensity, uHTS hits (AID 624327); assay type: functional;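 further: fluorescence from hydrolysis of an O-methyl fluorescein acyl ester substrate by the enzyme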
[6] = target: T2, Fatty acid synthase; test: FAS thioesterase domain inhibitors, dose response, biochemical, kinetic fluorescence intensity (AID 624326); assay type: functional;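 further: rate of fluorescence rise from hydrolysis of a fluorogenic O-methyl fluorescein ester substrate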
[7] = inhibitors of intracellular T. cruzi replication, confirmation, NIH3T3 host cells, beta-gal luminescence (AID 2044); assay type: functional, cell-based;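 further: intracellular parasites grown in NIH/3T3 mouse fibroblasts as host cells; luminescent beta-galactosidase reporter signal from transgenic T. cruzi replicating inside host cells; inhibitors lower the luminescence signal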
[8] = cytotoxicity toward NIH3T3 fibroblasts, dose response, counter-screen, cell-based, ATP luminescence, mouse fibroblasts (AID 2010); assay type: functional;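 further: cells exposed to compound for about 90 hours before reading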
[9] = cells; assay type: functional
[10] = inhibitors of firefly luciferase expression or activity, dose response, H4 neuroglioma cells, luminescence (AID 1990); assay type: functional, cell-based
[11] = Luminescence Cell-Based Dose Response HTS to Identify Inhibitors of 5'UTR Stem-Loop Driven Prion Protein mRNA Translation in H4 Neuroglioblastoma Cells. [Related pubchem assays: 1827 (Project Summary), 1813 (Primary HTS)]; assay type: functional
[12] = inhibitors of SNCA 5'UTR-driven reporter translation, confirmation, H4 neuroglioma cells, luminescence (AID 1988); assay type: functional, cell-based
[13] = target: T3, Protein skinhead-1 (Caenorhabditis elegans, UniProt P34707); assay type: functional
T3 sequence (P34707 whole entry): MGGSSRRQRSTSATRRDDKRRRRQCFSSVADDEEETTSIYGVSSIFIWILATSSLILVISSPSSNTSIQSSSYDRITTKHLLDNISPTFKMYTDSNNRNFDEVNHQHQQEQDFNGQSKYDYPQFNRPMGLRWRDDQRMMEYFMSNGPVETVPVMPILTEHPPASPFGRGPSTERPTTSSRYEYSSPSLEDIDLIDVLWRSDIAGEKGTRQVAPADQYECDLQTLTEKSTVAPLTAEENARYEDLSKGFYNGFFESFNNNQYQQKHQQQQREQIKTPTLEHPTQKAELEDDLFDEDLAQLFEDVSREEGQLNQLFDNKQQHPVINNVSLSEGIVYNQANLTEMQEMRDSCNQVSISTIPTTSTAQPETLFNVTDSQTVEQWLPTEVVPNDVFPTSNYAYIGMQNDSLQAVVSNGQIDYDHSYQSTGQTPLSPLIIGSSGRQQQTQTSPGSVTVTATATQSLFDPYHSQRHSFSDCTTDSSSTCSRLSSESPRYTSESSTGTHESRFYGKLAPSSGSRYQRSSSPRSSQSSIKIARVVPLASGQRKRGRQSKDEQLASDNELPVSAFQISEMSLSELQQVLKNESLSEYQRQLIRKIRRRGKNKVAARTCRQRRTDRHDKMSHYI

T1 sequence (P11940 whole entry): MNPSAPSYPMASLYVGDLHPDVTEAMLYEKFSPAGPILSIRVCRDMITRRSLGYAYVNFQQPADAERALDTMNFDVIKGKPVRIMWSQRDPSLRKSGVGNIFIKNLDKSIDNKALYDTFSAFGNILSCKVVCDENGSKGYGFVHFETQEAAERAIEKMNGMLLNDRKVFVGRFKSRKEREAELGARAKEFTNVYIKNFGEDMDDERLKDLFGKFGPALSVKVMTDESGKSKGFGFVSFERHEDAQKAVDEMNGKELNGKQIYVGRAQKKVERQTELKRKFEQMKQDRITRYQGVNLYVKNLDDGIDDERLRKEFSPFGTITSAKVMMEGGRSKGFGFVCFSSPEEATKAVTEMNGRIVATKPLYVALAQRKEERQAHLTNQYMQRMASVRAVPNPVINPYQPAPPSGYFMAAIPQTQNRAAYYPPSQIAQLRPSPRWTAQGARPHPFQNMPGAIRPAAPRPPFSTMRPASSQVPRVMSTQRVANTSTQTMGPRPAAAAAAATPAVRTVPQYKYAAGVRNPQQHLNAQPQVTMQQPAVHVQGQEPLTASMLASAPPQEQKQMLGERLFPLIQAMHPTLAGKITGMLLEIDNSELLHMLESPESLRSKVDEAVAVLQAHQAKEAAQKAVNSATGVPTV
Chain of FAD-linked sulfhydryl oxidase ALR (P55789 whole entry): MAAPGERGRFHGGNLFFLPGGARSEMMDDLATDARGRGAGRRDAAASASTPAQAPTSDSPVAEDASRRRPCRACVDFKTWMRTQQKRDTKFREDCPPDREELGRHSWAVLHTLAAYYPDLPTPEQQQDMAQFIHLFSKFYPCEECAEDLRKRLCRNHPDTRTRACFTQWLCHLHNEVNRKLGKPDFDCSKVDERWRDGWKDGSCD
T2 sequence (P49327 whole entry, the tested form may be a part): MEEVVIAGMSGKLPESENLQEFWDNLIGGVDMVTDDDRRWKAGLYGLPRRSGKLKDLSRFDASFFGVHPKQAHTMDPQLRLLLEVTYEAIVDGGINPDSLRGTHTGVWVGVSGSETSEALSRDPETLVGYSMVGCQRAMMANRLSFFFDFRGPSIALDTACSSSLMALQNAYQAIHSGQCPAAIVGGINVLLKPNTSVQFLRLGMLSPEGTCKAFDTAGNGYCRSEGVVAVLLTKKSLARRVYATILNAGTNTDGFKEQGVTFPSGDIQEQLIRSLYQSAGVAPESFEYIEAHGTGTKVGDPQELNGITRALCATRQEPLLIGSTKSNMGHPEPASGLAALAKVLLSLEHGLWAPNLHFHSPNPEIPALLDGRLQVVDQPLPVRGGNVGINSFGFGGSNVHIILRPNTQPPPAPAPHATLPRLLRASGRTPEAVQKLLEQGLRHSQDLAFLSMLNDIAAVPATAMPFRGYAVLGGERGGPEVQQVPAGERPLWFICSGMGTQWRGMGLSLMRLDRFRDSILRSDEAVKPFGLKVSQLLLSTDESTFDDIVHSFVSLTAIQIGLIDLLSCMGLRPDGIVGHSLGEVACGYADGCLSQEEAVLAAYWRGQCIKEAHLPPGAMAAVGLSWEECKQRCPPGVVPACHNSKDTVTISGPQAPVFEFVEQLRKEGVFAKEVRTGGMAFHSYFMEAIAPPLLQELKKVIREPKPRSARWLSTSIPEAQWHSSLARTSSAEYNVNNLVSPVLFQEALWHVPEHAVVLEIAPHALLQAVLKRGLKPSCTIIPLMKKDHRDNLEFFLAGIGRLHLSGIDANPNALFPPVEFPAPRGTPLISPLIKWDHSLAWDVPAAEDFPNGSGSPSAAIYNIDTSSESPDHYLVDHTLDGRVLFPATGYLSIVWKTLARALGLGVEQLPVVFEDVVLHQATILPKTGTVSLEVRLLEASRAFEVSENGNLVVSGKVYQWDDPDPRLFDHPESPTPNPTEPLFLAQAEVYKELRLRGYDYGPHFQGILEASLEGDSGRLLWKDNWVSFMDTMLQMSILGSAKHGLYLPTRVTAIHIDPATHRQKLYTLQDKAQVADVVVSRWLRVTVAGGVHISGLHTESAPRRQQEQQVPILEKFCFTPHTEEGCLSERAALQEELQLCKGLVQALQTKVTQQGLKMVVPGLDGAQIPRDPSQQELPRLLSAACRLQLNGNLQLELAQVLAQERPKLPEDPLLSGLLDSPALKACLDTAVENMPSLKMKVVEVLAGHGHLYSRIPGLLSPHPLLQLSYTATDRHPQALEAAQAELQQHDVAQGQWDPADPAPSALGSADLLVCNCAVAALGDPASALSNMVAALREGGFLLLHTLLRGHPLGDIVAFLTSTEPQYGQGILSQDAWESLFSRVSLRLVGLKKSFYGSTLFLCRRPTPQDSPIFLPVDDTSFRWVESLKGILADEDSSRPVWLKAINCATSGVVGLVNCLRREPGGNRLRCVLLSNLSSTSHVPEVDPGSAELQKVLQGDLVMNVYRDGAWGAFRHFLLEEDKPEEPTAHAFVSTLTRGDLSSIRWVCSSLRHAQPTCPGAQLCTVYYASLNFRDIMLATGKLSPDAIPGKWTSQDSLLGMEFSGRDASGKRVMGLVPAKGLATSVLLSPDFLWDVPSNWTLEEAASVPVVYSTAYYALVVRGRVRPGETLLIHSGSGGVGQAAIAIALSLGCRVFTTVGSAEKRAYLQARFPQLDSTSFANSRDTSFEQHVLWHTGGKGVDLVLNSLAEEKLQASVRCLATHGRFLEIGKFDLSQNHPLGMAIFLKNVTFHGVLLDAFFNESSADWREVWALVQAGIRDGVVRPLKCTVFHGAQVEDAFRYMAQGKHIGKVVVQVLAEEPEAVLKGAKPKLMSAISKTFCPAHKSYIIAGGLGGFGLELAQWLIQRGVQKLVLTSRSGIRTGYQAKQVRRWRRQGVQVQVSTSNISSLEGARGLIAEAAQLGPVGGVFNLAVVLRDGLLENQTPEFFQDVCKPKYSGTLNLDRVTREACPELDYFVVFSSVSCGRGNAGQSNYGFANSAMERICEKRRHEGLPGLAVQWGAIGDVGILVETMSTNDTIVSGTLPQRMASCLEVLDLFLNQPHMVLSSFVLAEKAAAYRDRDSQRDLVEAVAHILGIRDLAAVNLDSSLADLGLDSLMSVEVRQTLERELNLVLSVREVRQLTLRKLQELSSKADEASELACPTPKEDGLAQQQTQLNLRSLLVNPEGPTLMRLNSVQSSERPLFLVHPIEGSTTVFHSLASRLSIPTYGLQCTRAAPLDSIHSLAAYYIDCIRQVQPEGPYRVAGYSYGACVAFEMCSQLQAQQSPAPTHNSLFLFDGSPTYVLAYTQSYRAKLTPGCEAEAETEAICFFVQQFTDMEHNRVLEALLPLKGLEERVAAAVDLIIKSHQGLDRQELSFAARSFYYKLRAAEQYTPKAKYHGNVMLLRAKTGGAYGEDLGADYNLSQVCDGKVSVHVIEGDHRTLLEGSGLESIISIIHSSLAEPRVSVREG

With `Cc1occc(=O)c1OC(=O)Nc1ccc(Cl)c(Cl)c1` the AC50 [1] was 5.88 µM (active).

With `COc1ccccc1NC(=O)CN1CCSc2ccccc21` the AC50 [2] was 1.32 µM (active).

For `O=C1CCC(=O)N1c1ccc(CSc2nc3ccccc3[nH]2)cc1`, the AC50 [2] was 1.22 µM (active).

With `CNC(=S)NN=C(C)c1ccc(OC)cc1O` the IC50 [3] was > 66 µM (inactive) and the IC50 [4] was > 66 µM (inactive).

With `CSc1nccn1CC(=O)Nc1ccc(F)cc1` the AC50 [2] was 2.88 µM (active).

In the case of `O=C(NC1CCCCC1)C1CC(=O)N(c2cccc([N+](=O)[O-])c2)C1` (stereo not drawn), the IC50 [5] is reported as 3.47 µM (active) and the IC50 [6] is reported as 1.89 µM (active).

For `CC(=O)c1cccc(OC(=O)Oc2cccc(C(C)=O)c2)c1`, the IC50 [5] was 10.5 µM (active) and the IC50 [6] was 6.11 µM (active).

With `O=C(COC(=O)c1cc([N+](=O)[O-])ccc1N1CCCC1)Nc1ccccc1OC(F)F` the IC50 [5] was 8.72 µM (active) and the IC50 [6] was 9.1 µM (active).

For `CCN(CC)c1ccc(NS(=O)(=O)c2cn(C)c(=O)n(C)c2=O)c(C)c1`, the AC50 [2] was 0.789 µM (active).

For `CC(=O)Nc1ccc(NC(=O)c2cc([N+](=O)[O-])cc([N+](=O)[O-])c2)cc1`, the EC50 [7] was 1.63 µM (active), the EC50 [8] was > 60 µM (not active) and the IC50 [9] was 13.9 µM (active).

For `O=C(Nc1nnc(-c2ccccc2Cl)o1)c1ccco1`, the IC50 [9] was 11.8 µM (active).

With `CC(=O)Oc1ccc(/C=N/NC(=O)C2CCCN2S(=O)(=O)c2ccc(Cl)cc2)cc1` (stereo not drawn) the AC50 [2] was 12.7 µM (active).

In the case of `O=S(=O)(O)c1ccc(N2N=C(c3ccccc3)CC2c2ccccc2)cc1` (stereo not drawn), the AC50 [2] is reported as 10.9 µM (active).

With `COc1cc(CNC(C)c2ccccc2)cc(Br)c1OCc1ccc(F)cc1` (stereo not drawn) the EC50 [10] was 19.2 µM (active), the EC50 [11] was > 120 µM (not active) and the EC50 [12] was 17.7 µM (active). For the same compound, the EC50 [7] was 2.41 µM (active), the EC50 [8] was > 60 µM (not active) and the AC50 [1] was 6.99 µM (active). For the same compound, the IC50 [13] was 7.7 µM (active).

In the case of `Nc1ccc(NC(=O)c2cccs2)cc1`, the AC50 [2] is reported as 0.515 µM (active).

With `CCn1c2ccccc2c2nnc(SCc3ccc(C(=O)OC)o3)nc21` the IC50 [3] was > 66 µM (inactive) and the IC50 [4] was > 66 µM (inactive).

In the case of `Cc1ccc(Oc2ccc(S(=O)(=O)Nc3ccc(C(=O)O)cc3)cc2)cc1`, the AC50 [2] is reported as 0.714 µM (active).

With `COc1ccc(C2C=C(c3ccc(C)cc3)Nc3ncnn32)cc1` (stereo not drawn) the IC50 [3] was > 66 µM (inactive) and the IC50 [4] was > 66 µM (inactive).

In the case of `Cc1ccc(S(=O)(=O)N(C)CC(=O)Nc2ccccc2N2CCCC2)cc1`, the AC50 [2] is reported as 2.39 µM (active).
